Here are results for 28 compounds from US9650334B2 (AbbVie Deutschland GmbH & Co. KG, priority 2013, dated 2017).

The target in the experiment is T1, human GlyT1c transporter (Homo sapiens, UniProt P48067).
T1 sequence (P48067 1-706): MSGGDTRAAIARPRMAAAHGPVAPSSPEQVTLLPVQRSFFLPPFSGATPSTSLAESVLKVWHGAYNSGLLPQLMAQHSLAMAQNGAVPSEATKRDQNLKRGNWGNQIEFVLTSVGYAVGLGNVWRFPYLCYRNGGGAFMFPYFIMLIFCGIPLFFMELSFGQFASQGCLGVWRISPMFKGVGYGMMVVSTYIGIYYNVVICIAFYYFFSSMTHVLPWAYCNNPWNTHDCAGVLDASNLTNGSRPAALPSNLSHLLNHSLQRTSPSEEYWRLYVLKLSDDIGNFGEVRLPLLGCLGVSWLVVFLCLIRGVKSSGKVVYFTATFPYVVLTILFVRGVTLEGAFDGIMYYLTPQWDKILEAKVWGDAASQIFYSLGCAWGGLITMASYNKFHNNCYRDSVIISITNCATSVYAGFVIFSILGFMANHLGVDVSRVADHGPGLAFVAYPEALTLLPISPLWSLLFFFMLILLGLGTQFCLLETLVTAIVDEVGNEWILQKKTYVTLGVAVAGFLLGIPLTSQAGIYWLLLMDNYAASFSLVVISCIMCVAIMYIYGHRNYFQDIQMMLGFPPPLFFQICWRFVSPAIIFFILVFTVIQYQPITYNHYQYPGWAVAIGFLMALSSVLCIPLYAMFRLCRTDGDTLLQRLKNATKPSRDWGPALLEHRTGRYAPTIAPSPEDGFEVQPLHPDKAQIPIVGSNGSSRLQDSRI
The experiment in a line: Radioligand binding assays using recombinant CHO cell membranes expressing human GlyT1. The following applies: Ki, radioligand binding to human GlyT1c transporter-expressing CHO cell membranes.
`Cn1cnc(S(=O)(=O)N2C[C@@H]3c4ccccc4C[C@@]3(NCc3ccc(C(F)(F)F)cc3Cl)C2)c1` (relative stereo) [Example 885, trans-N-[2-chloro-4-(trifluoromethyl)benzyl]-2-[(1-methyl-1H-imidazol-4-yl)sulfonyl]-2,3,3a,8-tetrahydroindeno[1,2-c]pyrrol-8a(1H)-amine]: the Ki (usually the equilibrium dissociation constant of an inhibitor or competing ligand from its target) was ≤ 0.1 µM. With `Cn1cnc(S(=O)(=O)N2CC(c3ccccc3)C3(COC(=O)N3Cc3ccc(C(F)(F)F)cc3)C2)c1` (stereo not drawn) [Example 407, Trans-7-[(1-methyl-1H-imidazol-4-yl)sulfonyl]-9-phenyl-1-[4-(trifluoromethyl)benzyl]-3-oxa-1,7-diazaspiro[4.4]nonan-2-one] the figure was ≤ 10 µM; with `Cn1cnc(S(=O)(=O)N2C[C@H](NCc3cnc(Br)s3)[C@@H](c3ccccc3)C2)c1` [Example 438, (3R,4S)-N-[(2-bromo-1,3-thiazol-5-yl)methyl]-1-[(1-methyl-1H-imidazol-4-yl)sulfonyl]-4-phenylpyrrolidin-3-amine], ≤ 1 µM. As for `Cc1nc(CN[C@H]2CN(S(=O)(=O)c3cn(C)cn3)C[C@@H]2c2ccccc2)sc1Br` [Example 559, (3R,4S)-N-[(5-bromo-4-methyl-1,3-thiazol-2-yl)methyl]-1-[(1-methyl-1H-imidazol-4-yl)sulfonyl]-4-phenylpyrrolidin-3-amine], the Ki is ≤ 1 µM. Turning to `Cn1cnc(S(=O)(=O)N2CC(Nc3cccc(OC(F)(F)F)c3)C(C3CCCN(C4CC4)C3)C2)c1` (stereo not shown) [Example 641, 4-[-1-cyclopropylpiperidin-3-yl]-1-[(1-methyl-1H-imidazol-4-yl)sulfonyl]-N-[3-(trifluoromethoxy)phenyl]pyrrolidin-3-amine], the Ki is ≤ 0.1 µM.

With `CCCCc1cn([C@H]2CN(S(=O)(=O)c3cn(C)cn3)C[C@@H]2c2ccccc2)nn1` [Example 668, 4-butyl-1-{(3R,4S)-1-[(1-methyl-1H-imidazol-4-yl)sulfonyl]-4-phenylpyrrolidin-3-yl}-1H-1,2,3-triazole], the Ki is ≤ 10 µM. The result for `Cn1cnc(S(=O)(=O)N2C[C@H](NCCCCC3OCC(C)(C)CO3)[C@@H](c3ccc(F)cc3)C2)c1` [Example 684] reads ≤ 1 µM; that for `CCCCNC(=O)O[C@@H]1CN(S(=O)(=O)c2cn(C)cn2)C[C@H]1c1ccc(F)cc1` [Example 699, (3S,4R)-4-(4-fluorophenyl)-1-[(1-methyl-1H-imidazol-4-yl)sulfonyl]pyrrolidin-3-yl butylcarbamate], ≤ 1 µM. With `Cn1cnc(S(=O)(=O)N2C[C@H](Nc3cc(OCC(F)(F)F)ccn3)[C@@H](c3ccccc3)C2)c1` [Example 809, N-{(3R,4S)-1-[(1-methyl-1H-imidazol-4-yl)sulfonyl]-4-phenylpyrrolidin-3-yl}-4-(2,2,2-trifluoroethoxy)pyridin-2-amine] the figure was ≤ 0.01 µM; with `CCCCC1CN([C@H]2CN(S(=O)(=O)c3cn(C)cn3)C[C@@H]2c2ccc(F)cc2)C(=O)O1` (stereo partly drawn) [Example 863, 5-butyl-3-{(3R,4S)-4-(4-fluorophenyl)-1-[(1-methyl-1H-imidazol-4-yl)sulfonyl]pyrrolidin-3-yl}-1,3-oxazolidin-2-one], ≤ 1 µM.

With `Cn1cnc(S(=O)(=O)N2C[C@H](c3ccc(F)cc3)[C@@H](N3CCS(=O)(=O)CC3)C2)c1` [Example 864, 4-{(3R,4S)-4-(4-fluorophenyl)-1-[(1-methyl-1H-imidazol-4-yl)sulfonyl]pyrrolidin-3-yl}thiomorpholine 1,1-dioxide], the Ki is ≤ 10 µM. Consider `C=C(C)C1CCC(C)C(N[C@H]2CN(S(=O)(=O)c3cn(C)cn3)C[C@@H]2c2ccc(F)cc2)C1` (stereo partly drawn) [Example 867, (3R,4S)-4-(4-fluorophenyl)-1-[(1-methyl-1H-imidazol-4-yl)sulfonyl]-N-[2-methyl-5-(prop-1-en-2-yl)cyclohexyl]pyrrolidin-3-amine], for which the Ki is ≤ 0.1 µM. The result for `Cn1cnc(S(=O)(=O)N2C[C@H](NC(c3ccccc3)C(F)(F)F)[C@@H](c3ccc(F)cc3)C2)c1` (stereo partly drawn) [Example 868, (3R,4S)-4-(4-fluorophenyl)-1-[(1-methyl-1H-imidazol-4-yl)sulfonyl]-N-(2,2,2-trifluoro-1-phenylethyl)pyrrolidin-3-amine] reads ≤ 10 µM.

Turning to `Cn1cnc(S(=O)(=O)N2CC3CCCCC3(NCc3ccc(C(F)(F)F)cc3Cl)C2)c1` (stereo not shown) [Example 869, N-[2-chloro-4-(trifluoromethyl)benzyl]-2-[(1-methyl-1H-imidazol-4-yl)sulfonyl]octahydro-3aH-isoindol-3a-amine], the Ki is ≤ 0.01 µM. For the compound `Cn1cnc(S(=O)(=O)N2CC3CCCCC3(NC(=O)c3cccc(C(F)(F)F)c3Cl)C2)c1` (stereo not shown) [Example 870, 2-chloro-N-{2-[(1-methyl-1H-imidazol-4-yl)sulfonyl]octahydro-3aH-isoindol-3a-yl}-3-(trifluoromethyl)benzamide], the Ki was ≤ 0.1 µM. On to `Cn1cnc(S(=O)(=O)N2CC3CCCCC3(NC(=O)c3ccc(Cl)cc3Cl)C2)c1` (stereo not shown) [Example 871, 2,4-dichloro-N-{2-[(1-methyl-1H-imidazol-4-yl)sulfonyl]octahydro-3aH-isoindol-3a-yl}benzamide], for which the Ki was ≤ 0.1 µM. `CCCCCCN1CCCC2CN(S(=O)(=O)c3cn(C)cn3)CC21` (stereo not shown) [Example 872, 1-hexyl-6-[(1-methyl-1H-imidazol-4-yl)sulfonyl]octahydro-1H-pyrrolo[3,4-b]pyridine]: the Ki is > 10 µM. As to `Cn1cnc(S(=O)(=O)N2CC3CCCN(C(=O)c4ccc(Cl)cc4Cl)C3C2)c1` (stereo not shown) [Example 873, (2,4-dichlorophenyl){6-[(1-methyl-1H-imidazol-4-yl)sulfonyl]octahydro-1H-pyrrolo[3,4-b]pyridin-1-yl}methanone], the Ki is ≤ 10 µM. The result for `Cn1cnc(S(=O)(=O)N2CC3CCCN(C(=O)c4cccc(C(F)(F)F)c4Cl)C3C2)c1` (stereo not shown) [Example 874, [2-chloro-3-(trifluoromethyl)phenyl]{6-[(1-methyl-1H-imidazol-4-yl)sulfonyl]octahydro-1H-pyrrolo[3,4-b]pyridin-1-yl}methanone] reads ≤ 10 µM; that for `Cc1cccc(C(N[C@H]2CN(S(=O)(=O)c3cn(C)cn3)C[C@@H]2c2ccc(F)cc2)C(F)(F)F)c1` (stereo partly drawn) [Example 875, (3R,4S)-4-(4-fluorophenyl)-1-[(1-methyl-1H-imidazol-4-yl)sulfonyl]-N-[2,2,2-trifluoro-1-(3-methylphenyl)ethyl]pyrrolidin-3-amine], ≤ 10 µM; that for `Cc1ccc(C(N[C@H]2CN(S(=O)(=O)c3cn(C)cn3)C[C@@H]2c2ccc(F)cc2)C(F)(F)F)cc1` (stereo partly drawn) [Example 876, (3R,4S)-4-(4-fluorophenyl)-1-[(1-methyl-1H-imidazol-4-yl)sulfonyl]-N-[2,2,2-trifluoro-1-(4-methylphenyl)ethyl]pyrrolidin-3-amine], ≤ 1 µM.

Consider `Cn1cnc(S(=O)(=O)N2[C@@H]3CC[C@H]2[C@H](c2ccc(F)cc2)[C@H]3Nc2ccc(F)c(C(F)(F)F)c2)c1` [Example 877, (1R,2R,3R,4S)-3-(4-fluorophenyl)-N-[4-fluoro-3-(trifluoromethyl)phenyl]-7-[(1-methyl-1H-imidazol-4-yl)sulfonyl]-7-azabicyclo[2.2.1]heptan-2-amine], for which the Ki was ≤ 10 µM. As for `Cn1cnc(S(=O)(=O)N2C3CCC2C(c2ccc(F)cc2)C3Nc2ccc(F)c(C(F)(F)F)c2)c1` (stereo not shown) [Example 878, 3-(4-fluorophenyl)-N-[4-fluoro-3-(trifluoromethyl)phenyl]-7-[(1-methyl-1H-imidazol-4-yl)sulfonyl]-7-azabicyclo[2.2.1]heptan-2-amine], the Ki was ≤ 10 µM. With `Cn1cnc(S(=O)(=O)N2CC3CCCN(Cc4ccc(C(F)(F)F)cc4Cl)C3C2)c1` (stereo not shown) [Example 879, 1-[2-chloro-4-(trifluoromethyl)benzyl]-6-[(1-methyl-1H-imidazol-4-yl)sulfonyl]octahydro-1H-pyrrolo[3,4-b]pyridine], the inhibition constant (Ki) was ≤ 1 µM. On to `Cn1cnc(S(=O)(=O)N2CC3CCCN(C(=O)c4ccc(C(F)(F)F)cc4Cl)C3C2)c1` (stereo not shown) [Example 880, [2-chloro-4-(trifluoromethyl)phenyl]{6-[(1-methyl-1H-imidazol-4-yl)sulfonyl]octahydro-1H-pyrrolo[3,4-b]pyridin-1-yl}methanone], for which the Ki is ≤ 1 µM. For `Cn1cnc(S(=O)(=O)N2CC(C(=O)NCc3ccc(F)c(Cl)c3)C3(CCCCC3)C2)c1` (stereo not shown) [Example 881, N-(3-chloro-4-fluorobenzyl)-2-[(1-methyl-1H-imidazol-4-yl)sulfonyl]-2-azaspiro[4.5]decane-4-carboxamide], the Ki was ≤ 1 µM. With `Cn1cnc(S(=O)(=O)N2CC(C(=O)NCc3ccc(F)c(F)c3)C3(CCCCC3)C2)c1` (stereo not shown) [Example 882, N-(3,4-difluorobenzyl)-2-[(1-methyl-1H-imidazol-4-yl)sulfonyl]-2-azaspiro[4.5]decane-4-carboxamide] the figure was ≤ 1 µM; with `Cn1cnc(S(=O)(=O)N2C[C@H](c3ccc(F)cc3)[C@@H](N3C(=O)Cc4ccccc43)C2)c1` [Example 883, 1-{(3R,4S)-4-(4-fluorophenyl)-1-[(1-methyl-1H-imidazol-4-yl)sulfonyl]pyrrolidin-3-yl}-1,3-dihydro-2H-indol-2-one], ≤ 10 µM.
